Measurements from PMC8175350, “Drug repurposing screens identify chemical entities for the development of COVID-19 interventions” (Nature Communications, 2021).
pEC50: −log10 of the molar value. Like-named read-outs stand apart in the source and are kept apart here.

How the values were obtained:
[1] = Uninfected HeLa-ACE2 24 h live/dead cytotoxicity counter screen; assay type: cell-based, human; conditions: human, uninfected HeLa-ACE2 cells; read-out: HeLa-ACE2 uninfected cytotoxicity CC50 GeoMean
HeLa-ACE2 cells [2] = assay: as above; assay type: cell-based, human; conditions: curve plateau at infinite concentration
HepG2 = HepG2 72 h CellTiter-Glo cytotoxicity; conditions: 72 h
HEK293T = HEK293T 72 h CellTiter-Glo cytotoxicity; conditions: 72 h
HeLa-ACE2 cells [3] = assay: Total cell count in the HeLa-ACE2 TOA assay; assay type: cell-based; conditions: Homo sapiens
Source text: Supplement 41467_2021_23328_MOESM3_ESM.xlsx, sheet "Table S1" | column: HeLa-ACE2 TOA cell count

HeLa-ACE2 cells [4] = assay: cells; conditions: Homo sapiens
SARS-CoV-2 [5] = assay: microbe, parasite or virus in culture; assay type: cell-based
SARS-CoV-2 [6] = assay: microbe, parasite or virus in culture; assay type: cell-based; remark: listed apart in the source
in vitro = conditions: human, Calu-3 uninfected cytotoxicity CC50 GeoMean
Calu-3 cells [7] = assay: Uninfected Calu-3 48 h Cell-Titer Glo cytotoxicity counter screen; conditions: curve plateau at infinite concentration
SARS-CoV-2 [8] = assay: microbe, parasite or virus in culture; assay type: cell-based; remark: listed apart in the source
Calu-3 cells [9] = assay: cells; conditions: Homo sapiens

## CCC(CC)COC(=O)[C@H](C)NP(=O)(OC[C@H]1O[C@@](C#N)(c2ccc3c(N)ncnn23)[C@H](O)[C@@H]1O)Oc1ccccc1 (stereo partly drawn) [Remdesivir - control]
[1]
  CC50 at 24 h: > 9670 nM
HeLa-ACE2 cells [2]
  HeLa-ACE2 uninfected cytotoxicity Sinf Average: -98%
HepG2
  HepG2 72-hour cytotoxicity Sinf Average: -100%
HEK293T
  HEK293T 72-hour cytotoxicty Sinf Average: -95%
HeLa-ACE2 cells [3]; HeLa-ACE2, 10 h, curve plateau at infinite concentration, read-out: HeLa-ACE2 TOA cell count Sinf Average
  Emax: 100%
HeLa-ACE2 cells [3]; HeLa-ACE2, read-out: HeLa-ACE2 TOA cell count EC50 GeoMean
  pEC50: < 5.62
HeLa-ACE2 cells [4]; HeLa-ACE2, 24 h, read-out: HeLa-ACE2 cell count Sinf Average
  Emax: -42%
HeLa-ACE2 cells [4]; HeLa-ACE2, read-out: HeLa-ACE2 cell count EC50 GeoMean
  pEC50: < 5.92
SARS-CoV-2 [5]; Severe acute respiratory syndrome coronavirus 2, Calu-3, 48 h, curve plateau at infinite concentration, read-out: Calu-3 CoV-2 Sinf Average
  Emax: 100%
SARS-CoV-2 [5]; Severe acute respiratory syndrome coronavirus 2, Calu-3, detail column, read-out: Calu-3 CoV-2 EC50 GeoMean
  pEC50: 6.35
SARS-CoV-2 [6]; Severe acute respiratory syndrome coronavirus 2, HeLa-ACE2, 24 h, curve plateau at infinite concentration, read-out: HeLa-ACE2 CoV-2 Sinf Average
  Emax: 100%
SARS-CoV-2 [6]; Severe acute respiratory syndrome coronavirus 2, HeLa-ACE2, detail column, read-out: HeLa-ACE2 CoV-2 EC50 GeoMean
  pEC50: 6.91
In vitro
  CC50: > 30000 nM
Calu-3 cells [7]
  Calu-3 uninfected cytotoxicity Sinf Average: -100%
SARS-CoV-2 [8]; Severe acute respiratory syndrome coronavirus 2, HeLa-ACE2, 10 h, curve plateau at infinite concentration, read-out: HeLa-ACE2 TOA CoV-2 Sinf Average
  Emax: 101%
SARS-CoV-2 [8]; Severe acute respiratory syndrome coronavirus 2, HeLa-ACE2, read-out: HeLa-ACE2 TOA CoV-2 EC50 GeoMean
  pEC50: 6.11
Calu-3 cells [9]; Calu-3, 48 h, read-out: Calu-3 cell count Sinf Average
  Emax: 101%
Calu-3 cells [9]; Calu-3, read-out: Calu-3 cell count EC50 GeoMean
  pEC50: 6.27
